Measurements: PubChem BioAssay (NCI)
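Results reflect a 48-hour exposure of cells in 96-well plates to compound at five concentrations. TGI: total growth inhibition.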

What was measured:
Assay in all cases: NCI tumour cell line growth inhibition, 48 h
HCT-116 colon = tested on: HCT-116 colon
HS 578T breast = tested on: HS 578T breast
MCF7 breast = tested on: MCF7 breast
MDA-MB-231 breast = tested on: MDA-MB-231 breast
MDA-N = tested on: MDA-N
NCI-H23 lung = tested on: NCI-H23 lung
NCI-H460 lung = tested on: NCI-H460 lung
SN12C renal = tested on: SN12C renal
T-47D breast = tested on: T-47D breast
TK-10 renal = tested on: TK-10 renal

| SMILES | TGI (HCT-116 colon) [µM] | TGI (HS 578T breast) [µM] | TGI (MCF7 breast) [µM] | TGI (MDA-MB-231 breast) [µM] | TGI (MDA-N) [µM] | TGI (NCI-H23 lung) [µM] | TGI (NCI-H460 lung) [µM] | TGI (SN12C renal) [µM] | TGI (T-47D breast) [µM] | TGI (TK-10 renal) [µM] |
| --- | --- | --- | --- | --- | --- | --- | --- | --- | --- | --- |
| O=C(c1ccc([N+](=O)[O-])cc1)N1CCCC1 | > 100 | > 100 | > 100 | > 100 | > 100 | > 100 | > 100 | > 100 | > 100 | > 100 |
| CSc1ncc2c(n1)-c1ccccc1OC2NC1CC1 (stereo not given) | > 100 | > 100 | > 100 | > 100 | > 100 | > 100 | > 100 | > 100 | 91.7 | > 100 |
| CCOC(=O)/C=C/CCC(C)(C)COC(C)=O | > 10 | > 10 | > 10 | > 10 | > 10 | > 10 | > 10 | > 10 | > 10 | > 10 |
| CC1=NN2C(=N)/C(=C/c3ccc(F)cc3)C(=O)N=C2S1 | > 100 | > 100 | > 100 | > 100 | > 100 | > 100 | > 100 | > 100 | > 100 | > 100 |
| CS(=O)(=O)Nc1ccc2ccccc2c1 | > 100 | > 100 | > 100 | > 100 | > 100 | > 100 | > 100 | > 100 | > 100 | > 100 |
| CC[C@H](NC(=O)OC(C)(C)C)C(=O)NCP(=O)(OCc1ccc([N+](=O)[O-])cc1)OCc1ccc([N+](=O)[O-])cc1 | > 100 | > 100 | > 100 | > 100 | 86.1 | > 100 | > 100 | > 100 | > 100 | > 100 |
| CN1C2=Nc3n(c4ccccc4[n+]3C)CN2c2ccccc21 | > 100 | 90.8 | 33.6 | > 100 | 50.5 | > 100 | > 100 | 93.7 | 55.1 | > 100 |
| CCC1(CC)C(=O)N(C(=O)c2cc(OC)c(OC)c(OC)c2)N(C(=O)c2cc(OC)c(OC)c(OC)c2)C1=O | > 50 | > 50 | > 50 | > 50 | > 50 | > 50 | > 50 | > 50 | > 50 | > 50 |
| CC1(C)OCC(C2OC(C)(C)OC2[C@H]2O[C@@]3(O)[C@H]4[C@H](C=CC[C@@H]42)[C@@H](OCc2ccccc2)[C@H](OCc2ccccc2)[C@H]3OCc2ccccc2)O1 (stereo not given in full) | > 100 | > 100 | > 100 | > 100 | 44.8 | > 100 | > 100 | > 100 | > 100 | > 100 |
| O=C(NC(C(F)(F)F)(C(F)(F)F)P(=O)(Cc1ccccc1)Cc1ccccc1)C(C(F)(F)F)C(F)(F)F | 33.1 | > 100 | 31.8 | 38.8 | 43.6 | 40.8 | 78.3 | 38.4 | 95.1 | 39.1 |
| CSc1nc(Cl)c2c(n1)Sc1nc3ccccc3n1C2O (stereo not given) | > 33.1 | > 68.8 | > 100 | > 100 | > 100 | > 100 | > 74.6 | > 100 | > 100 | > 100 |
| C[As+](C)(c1ccc(Br)c([N+](=O)[O-])c1)c1ccc(Br)c([N+](=O)[O-])c1.O=[N+]([O-])O | > 100 | > 100 | > 100 | > 100 | > 100 | > 100 | > 100 | > 100 | > 100 | > 100 |
| CC1(C)N=C(N)N=C(N)N1c1cccc(Cl)c1 | > 100 | > 100 | > 100 | > 100 | > 100 | > 100 | > 100 | > 100 | > 100 | > 100 |
| COc1ccc2c(c1OC)C(=O)N1C2=Cc2c(cc3c(c2OC)OCO3)CC1N(C)C (stereo not given) | > 100 | > 100 | > 100 | > 100 | > 100 | > 100 | > 100 | > 100 | 74.4 | > 100 |
| CSc1nc(=O)c2nc(-c3cccs3)c(-c3cccs3)nc2n1C | > 100 | > 100 | > 100 | > 100 | > 100 | > 100 | > 100 | > 100 | 80.4 | > 100 |
| CNC(=S)N1CCN(C(C)=O)C1=S | > 100 | 87.5 | > 100 | 16 | > 100 | > 100 | > 100 | > 100 | 90.7 | > 100 |
| O=C(Nc1nn(C(=O)c2cccnc2)c(=O)s1)c1ccc(Cl)cc1 | > 100 | 60.3 | > 100 | > 100 | > 100 | > 100 | > 100 | > 100 | > 100 | > 100 |
